Source: patent US20240300975A1, “DIMETHYL-SUBSTITUTED THIAZOLOLACTAM COMPOUND AND USE THEREOF” (D3 Bio (Wuxi) Co., Ltd., priority 2021, published 2024)

What was measured:
HT29 tumor cells = experiment: In vitro cell proliferation inhibition (CellTiterGlo); assay type: cell-based; details: Homo sapiens, HT-29
Protocol: The ability of compounds to inhibit the proliferation of HT29 tumor cells was measured.
The assay compound was dissolved in 100% DMSO to prepare 10 mM stock solution.
• a) UV light of a biological safety cabin was turned on, and 30 minutes were counted down; • b) In a 37° C. water bath, RPMI1640 medium and trypsin were preheated; • c) After completion of the UV irradiation, the biological safety cabin was opened. The preheated medium, trypsin and phosphate buffered saline (PBS), etc. were wiped with alcohol and placed in the biological safety cabin; • d) HT29 cells were removed from the incubator, and the old medium was removed in biological safety cabin. 10 ml of PBS was added. […] The culture vessel was shaken horizontally so that the trypsin evenly covered the cells at the bottom, and placed in an incubator for 2 minutes; • f) Cell digestion was stopped with complete medium, and the cell suspension was pipetted to homogeneity and counted; • g) According to the result of cell counting, the density of cell suspension was adjusted to 1500 cells per well, and the cell suspension was seeded at 50 μl per well; • h) The stock solution of compounds was serially diluted in DMSO solution, and compounds were added to cell plate using Tecan; • i) The compound-added cell plate and CellTiterGlo were equilibrated at room temperature, and 25 microliters of CellTiterGlo was then added to each well. […]

ERK2 = ERK2 (Homo sapiens (Human), UniProt P28482); experiment: In vitro ERK2 kinase activity assay (33P-ATP, filter-binding); assay type: biochemical
Protocol: The ability of compounds to inhibit ERK1 and ERK2 kinase activity was measured.
20 mM Hepes (pH 7.5), 10 mM MgCl2, 1 mM ethylenebis(oxyethylenenitrilo)tetraacetic acid (EGTA), 0.02% Brij35, 0.02 mg/mL bovine serum albumin (BSA), 0.1 mM Na3VO4, 2 mM dithiothreitol (DTT), 1% DMSO.
The assay compound was dissolved in 100% DMSO to prepare a stock solution of specific concentration. The compound was serially diluted in DMSO solution using Integra Viaflo Assist smart pipette.
• a) The substrate MBP was prepared in freshly prepared reaction buffer; • b) ERK1 (or ERK2) kinase was added to the above-mentioned MBP solution and mixed gently; • c) The compound dissolved in 100% DMSO was added to the kinase reaction system using ultrasound technology (Echo550; nanoliter range), and the mixture was incubated at room temperature for 20 minutes; • d)^33P-ATP (specific concentration of […]) was added to the reaction system, and the reaction was started at this time; • e) The mixture was incubated at room temperature for 2 hours; • f) The amount of radioactivity was detected by filter-binding method; • g) ERK1 (or ERK2) kinase activity was calculated as the ratio of the remaining kinase activity in the assay sample to the kinase activity of the control group (treated by DMSO).
Curve was fitted using Prism (GraphPad software) and IC50 values were calculated.

Chain of ERK2 (P28482 whole entry): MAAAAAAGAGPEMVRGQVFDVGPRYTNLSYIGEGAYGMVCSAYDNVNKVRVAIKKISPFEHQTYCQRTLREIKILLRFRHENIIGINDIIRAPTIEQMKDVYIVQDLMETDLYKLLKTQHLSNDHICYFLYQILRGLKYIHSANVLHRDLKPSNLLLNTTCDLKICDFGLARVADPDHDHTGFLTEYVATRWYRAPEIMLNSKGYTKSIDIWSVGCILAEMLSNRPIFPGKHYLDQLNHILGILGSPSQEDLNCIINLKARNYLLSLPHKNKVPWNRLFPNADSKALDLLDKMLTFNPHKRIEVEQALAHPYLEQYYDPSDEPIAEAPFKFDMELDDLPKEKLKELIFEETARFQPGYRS

| IC50 (HT29 tumor cells) [nM] | IC50 (ERK2) [nM] | Structure (SMILES) |
| --- | --- | --- |
| 46 | 0.47 | Cc1cccc(CN2C(=O)c3nc(-c4nc(NC5CCOCC5)ncc4C)sc3C2(C)C)n1 [WX002] |
| – | 0.93 | Cc1cccc(CN2C(=O)c3nc(-c4ccnc(Nc5ccnn5C)n4)sc3C2(C)C)n1 [WX003] |
| – | 0.34 | CCc1cnc(Nc2ccnn2C)nc1-c1nc2c(s1)C(C)(C)N(Cc1cccc(C)n1)C2=O [WX004] |
